Test results: the supplement of paper PMC9663587

How the values were obtained:
[1] = compound: CCN1CCN(Cc2ccc(Nc3ncc(F)c(-c4cc(F)c5nc(C)n(C(C)C)c5c4)n3)nc2)CC1; assay: increase in dead-cell fraction, 72 h; higher = more death;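 further: breast cancer cell lines in 384-well plates, stained with Hoechst plus LIVE/DEAD far red dye and imaged, cells above an LDR intensity threshold counted dead, Hoechst-negative corpses included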
[2] = compound: CCc1cnn2c(NCc3ccc[n+]([O-])c3)cc(N3CCCC[C@H]3CCO)nc12; assay: as above
THZ1 [3] = compound: T1, CN(C)C/C=C/C(=O)Nc1ccc(C(=O)Nc2cccc(Nc3ncc(Cl)c(-c4c[nH]c5ccccc45)n3)c2)cc1 [THZ1]; assay: as above
YKL-5-124 = compound: C=CC(=O)Nc1ccc(C(=O)Nc2[nH]nc3c2CN(C(=O)N[C@H](CN(C)C)c2ccccc2)C3(C)C)cc1 [YKL-5-124]; assay: as above
Neratinib/HKI272 [4] = compound: T2, CCOc1cc2ncc(C#N)c(Nc3ccc(OCc4ccccn4)c(Cl)c3)c2cc1NC(=O)/C=C/CN(C)C [Neratinib/HKI272]; assay: as above
Flavopiridol = compound: CN1CC[C@H](c2c(O)cc(O)c3c(=O)cc(-c4ccccc4Cl)oc23)[C@H](O)C1 [Flavopiridol]; assay: as above
[5] = compound: CC(=O)c1c(C)c2cnc(Nc3ccc(N4CCNCC4)cn3)nc2n(C2CCCC2)c1=O; assay: as above
LEE011/Ribociclib = compound: CN(C)C(=O)c1cc2cnc(Nc3ccc(N4CCNCC4)cn3)nc2n1C1CCCC1 [LEE011/Ribociclib]; assay: as above
BSJ-03-123 = compound: CC(=O)c1c(C)c2cnc(Nc3ccc(N4CCN(CCOCCOCCOCCNC(=O)COc5cccc6c5C(=O)N(C5CCC(=O)NC5=O)C6=O)CC4)cn3)nc2n(C2CCCC2)c1=O [BSJ-03-123]; assay: as above
THZ531 = compound: CN(C)C/C=C/C(=O)Nc1ccc(C(=O)N2CCC[C@@H](Nc3ncc(Cl)c(-c4c[nH]c5ccccc45)n3)C2)cc1 [THZ531]; assay: as above
THZ1 [6] = compound: T1, THZ1; assay: GR value, 72 h; higher = faster growth (1 = untreated, <0 = killing);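 further: breast cancer and non-malignant breast epithelial lines, nine half-log doses, viable cells counted by Hoechst and LIVE/DEAD dye imaging versus time-zero plates and DMSO controls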
Neratinib/HKI272 [7] = compound: T2, Neratinib/HKI272; assay: as above

## CAL851
[1]; 0.001 µM
  increase in dead-cell fraction: -0.0049
[1]; 0.003162 µM
  increase in dead-cell fraction: -0.0095
[1]; 0.01 µM
  increase in dead-cell fraction: -0.0073
[1]; 0.03162 µM
  increase in dead-cell fraction: -0.0136
[1]; 0.1 µM
  increase in dead-cell fraction: -0.0173
[1]; 0.3162 µM
  increase in dead-cell fraction: -0.0161
[1]; 1 µM
  increase in dead-cell fraction: 0.0209
[1]; 3.162 µM
  increase in dead-cell fraction: 0.211
[1]; 10 µM
  increase in dead-cell fraction: 0.266
[2]; 0.0001 µM
  increase in dead-cell fraction: -0.007
[2]; 0.0003162 µM
  increase in dead-cell fraction: -0.005
[2]; 0.001 µM
  increase in dead-cell fraction: 0.003
[2]; 0.003162 µM
  increase in dead-cell fraction: 0.0409
[2]; 0.01 µM
  increase in dead-cell fraction: 0.2
[2]; 0.03162 µM
  increase in dead-cell fraction: 0.147
[2]; 0.1 µM
  increase in dead-cell fraction: 0.205
[2]; 0.3162 µM
  increase in dead-cell fraction: 0.22
[2]; 1 µM
  increase in dead-cell fraction: 0.217
THZ1 [3]; 0.0001 µM
  increase in dead-cell fraction: -0.0023
THZ1 [3]; 0.0003162 µM
  increase in dead-cell fraction: -0.0015
THZ1 [3]; 0.001 µM
  increase in dead-cell fraction: 0.0049
THZ1 [3]; 0.003162 µM
  increase in dead-cell fraction: 0.0027
THZ1 [3]; 0.01 µM
  increase in dead-cell fraction: 0.0075
THZ1 [3]; 0.03162 µM
  increase in dead-cell fraction: 0.0208
THZ1 [3]; 0.1 µM
  increase in dead-cell fraction: 0.053
THZ1 [3]; 0.3162 µM
  increase in dead-cell fraction: 0.123
THZ1 [3]; 1 µM
  increase in dead-cell fraction: 0.402
YKL-5-124; 0.001 µM
  increase in dead-cell fraction: 0.0613
YKL-5-124; 0.003162 µM
  increase in dead-cell fraction: 0.0965
YKL-5-124; 0.01 µM
  increase in dead-cell fraction: 0.0961
YKL-5-124; 0.03162 µM
  increase in dead-cell fraction: 0.1
YKL-5-124; 0.1 µM
  increase in dead-cell fraction: 0.12
YKL-5-124; 0.3162 µM
  increase in dead-cell fraction: 0.15
YKL-5-124; 1 µM
  increase in dead-cell fraction: 0.096
YKL-5-124; 3.162 µM
  increase in dead-cell fraction: 0.12
YKL-5-124; 10 µM
  increase in dead-cell fraction: 0.402
Neratinib/HKI272 [4]; 0.0003162 µM
  increase in dead-cell fraction: -0.0016
Neratinib/HKI272 [4]; 0.001 µM
  increase in dead-cell fraction: 0.0027
Neratinib/HKI272 [4]; 0.003162 µM
  increase in dead-cell fraction: 0.006
Neratinib/HKI272 [4]; 0.01 µM
  increase in dead-cell fraction: 0.0409
Neratinib/HKI272 [4]; 0.03162 µM
  increase in dead-cell fraction: 0.113
Neratinib/HKI272 [4]; 0.1 µM
  increase in dead-cell fraction: 0.199
Neratinib/HKI272 [4]; 0.3162 µM
  increase in dead-cell fraction: 0.29
Neratinib/HKI272 [4]; 1 µM
  increase in dead-cell fraction: 0.344
Neratinib/HKI272 [4]; 3.162 µM
  increase in dead-cell fraction: 0.542
Flavopiridol; 0.0001 µM
  increase in dead-cell fraction: -0.0044
Flavopiridol; 0.0003162 µM
  increase in dead-cell fraction: 0.0036
Flavopiridol; 0.001 µM
  increase in dead-cell fraction: 0.0039
Flavopiridol; 0.003162 µM
  increase in dead-cell fraction: -0.0035
Flavopiridol; 0.01 µM
  increase in dead-cell fraction: 0.0021
Flavopiridol; 0.03162 µM
  increase in dead-cell fraction: 0.001
Flavopiridol; 0.1 µM
  increase in dead-cell fraction: 0.0068
Flavopiridol; 0.3162 µM
  increase in dead-cell fraction: 0.0514
Flavopiridol; 1 µM
  increase in dead-cell fraction: 0.103
[5]; 0.0003162 µM
  increase in dead-cell fraction: 0.0002
[5]; 0.001 µM
  increase in dead-cell fraction: 0.0074
[5]; 0.003162 µM
  increase in dead-cell fraction: -0.0015
[5]; 0.01 µM
  increase in dead-cell fraction: -0.0049
[5]; 0.03162 µM
  increase in dead-cell fraction: -0.0041
[5]; 0.1 µM
  increase in dead-cell fraction: 0.0052
[5]; 0.3162 µM
  increase in dead-cell fraction: -0.004
[5]; 1 µM
  increase in dead-cell fraction: -0.0071
[5]; 3.162 µM
  increase in dead-cell fraction: -0.006
LEE011/Ribociclib; 0.001 µM
  increase in dead-cell fraction: -0.003
LEE011/Ribociclib; 0.003162 µM
  increase in dead-cell fraction: 0.001
LEE011/Ribociclib; 0.01 µM
  increase in dead-cell fraction: 0.0024
LEE011/Ribociclib; 0.03162 µM
  increase in dead-cell fraction: 0
LEE011/Ribociclib; 0.1 µM
  increase in dead-cell fraction: -0.0008
LEE011/Ribociclib; 0.3162 µM
  increase in dead-cell fraction: -0.0059
LEE011/Ribociclib; 1 µM
  increase in dead-cell fraction: 0.0038
LEE011/Ribociclib; 3.162 µM
  increase in dead-cell fraction: 0.0003
LEE011/Ribociclib; 10 µM
  increase in dead-cell fraction: -0.0071
BSJ-03-123; 0.001 µM
  increase in dead-cell fraction: -0.0043
BSJ-03-123; 0.003162 µM
  increase in dead-cell fraction: -0.0029
BSJ-03-123; 0.01 µM
  increase in dead-cell fraction: -0.0014
BSJ-03-123; 0.03162 µM
  increase in dead-cell fraction: 0.0058
BSJ-03-123; 0.1 µM
  increase in dead-cell fraction: 0.007
BSJ-03-123; 0.3162 µM
  increase in dead-cell fraction: 0.0046
BSJ-03-123; 1 µM
  increase in dead-cell fraction: 0.0134
BSJ-03-123; 3.162 µM
  increase in dead-cell fraction: 0.0379
BSJ-03-123; 10 µM
  increase in dead-cell fraction: 0.0921
THZ531; 0.0001 µM
  increase in dead-cell fraction: 0.0002
THZ531; 0.0003162 µM
  increase in dead-cell fraction: 0.0044
THZ531; 0.001 µM
  increase in dead-cell fraction: -0.0008
THZ531; 0.003162 µM
  increase in dead-cell fraction: 0.0011
THZ531; 0.01 µM
  increase in dead-cell fraction: 0.0061
THZ531; 0.03162 µM
  increase in dead-cell fraction: 0.0125
THZ531; 0.1 µM
  increase in dead-cell fraction: 0.0297
THZ531; 0.3162 µM
  increase in dead-cell fraction: 0.048
THZ531; 1 µM
  increase in dead-cell fraction: 0.0747
THZ1 [6]; 0.0001 µM
  GR value: 1.01 GR
THZ1 [6]; 0.0003162 µM
  GR value: 0.917 GR
THZ1 [6]; 0.001 µM
  GR value: 0.835 GR
THZ1 [6]; 0.003162 µM
  GR value: 0.727 GR
THZ1 [6]; 0.01 µM
  GR value: 0.6 GR
THZ1 [6]; 0.03162 µM
  GR value: 0.145 GR
THZ1 [6]; 0.1 µM
  GR value: -0.146 GR
THZ1 [6]; 0.3162 µM
  GR value: -0.225 GR
THZ1 [6]; 1 µM
  GR value: -0.549 GR
Neratinib/HKI272 [7]; 0.0003162 µM
  GR value: 1.04 GR
Neratinib/HKI272 [7]; 0.001 µM
  GR value: 0.993 GR
Neratinib/HKI272 [7]; 0.003162 µM
  GR value: 0.881 GR
Neratinib/HKI272 [7]; 0.01 µM
  GR value: 0.747 GR
Neratinib/HKI272 [7]; 0.03162 µM
  GR value: 0.435 GR
Neratinib/HKI272 [7]; 0.1 µM
  GR value: 0.226 GR
Neratinib/HKI272 [7]; 0.3162 µM
  GR value: 0.109 GR
Neratinib/HKI272 [7]; 1 µM
  GR value: -0.0501 GR
Neratinib/HKI272 [7]; 3.162 µM
  GR value: -0.322 GR
